Test results: ChEMBL document CHEMBL4616630, “Amide-Iminoate Isomerism in Antineuroinflammatory Isoquinoline Alkaloids from Stephania cepharantha” (J Nat Prod, 2020)

System: BV-2
Assay: Ant-inflammatory LPS-induced mouse BV2 cells assessed as reduction in NO production after 24 hrs by Griess reagent based assay
Assay type: functional, cell-based
Conditions: BV-2, 24 h

SMILES	IC50 [µM]
COC1=C2[C@H]3Cc4ccc(OC)c(O)c4[C@]2(CCN3C=O)C[C@H](O)[C@@H]1O	37.3
COC1=C2[C@H]3Cc4ccc(OC)c(O)c4[C@]2(CCN3C=O)C[C@H](O)[C@@H]1OC(C)=O	> 100
COc1cc2c3c(c1OC)C1(C=CC(=O)C=C1)C[C@H]3N(C=O)CC2	> 100
COc1ccc2cc1Oc1ccc(cc1)C[C@H]1c3c(cc4c(c3Oc3cc5c(cc3OC)CCN(C=O)[C@@H]5C2)OCO4)CCN1C	12
O=CN1CCc2cc3c(c4c2[C@H]1Cc1cc(O)ccc1-4)OCO3	> 100
COC1=C2[C@H]3Cc4ccc(OC)c(O)c4[C@]2(CCN3C=O)C[C@H](OC(C)=O)[C@@H]1O	> 100
COC1=C2[C@H]3Cc4ccc(OC)c(O)c4[C@]2(CCN3C=O)C[C@H](OC(C)=O)[C@@H]1OC(C)=O	> 100
COc1ccc2cc1Oc1ccc(cc1)C[C@H]1c3cc(c(OC)cc3CCN1C=O)Oc1c(OC)c(OC)cc3c1[C@@H](C2)N(C)CC3	12.6
CN(C)c1ccc(O)c2c1C[C@H]1C[C@H]3[C@H](N(C)C)C(O)=C(C(N)=O)C(=O)[C@@]3(O)C(O)=C1C2=O [MINOCYCLINE]	17.5
